{"source": "patent US20240016781A1", "about": "“TREATMENT OF KRAS MUTANT CANCERS” (MEI Pharma, Inc., priority 2020, published 2024)", "experiment_in_all_cases": "72-hour CellTiter-Glo 2.0 growth inhibition screen (single agent, 9x9 combination dose matrix);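 for Best CI Level: inhibition effect level at which the best CI was calculated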", "type_in_all_cases": "cell-based", "key": {"HCC44": {"system": "HCC44", "conditions": "for Response Area / EC50 / Emax: HCC44, Lung; for EC50 / Emax: Homo sapiens; for EC50: HCC44, 72 h"}, "Gp2D": {"system": "Gp2D", "conditions": "for EC50: GP2d; for EC50 / Response Area / Emax: Colorectal; for Response Area / Emax: Gp2D"}, "Calu-1": {"system": "Calu-1", "conditions": "for Response Area / EC50 / Emax: Calu-1, Lung; for EC50 / Emax: Homo sapiens; for EC50: Calu-1, 72 h"}, "SW48": {"system": "SW48", "conditions": "for EC50 / Emax: Homo sapiens; for EC50: SW48, 72 h; for EC50 / Emax / Response Area: SW48, Colorectal"}, "Panc 04.03": {"system": "Panc 04.03", "conditions": "for Response Area: Panc 04.03, Pancreas"}, "[1]": {"conditions": "HCC44 (KRAS G12C), enhancer + MEI-522 (Voruciclib), 72 h"}, "[2]": {"conditions": "Additional Single Agent Responses (inhibition, % I), 72 h"}, "[3]": {"conditions": "growth inhibition (GI), AUC, single agent, 72 h"}, "[4]": {"conditions": "growth inhibition (GI) curve, single agent, 72 h"}, "[5]": {"conditions": "Additional Single Agent Responses, 72 h, read-out: Max Response (% I)"}, "[6]": {"conditions": "growth inhibition (GI), single agent, 72 h, read-out: Max Response (% GI)"}, "[7]": {"conditions": "enhancer combined with MEI-522 (Voruciclib), HCC44 (Lung), 72 hours, inhibition data"}, "[8]": {"conditions": "Gp2D (KRAS G12D), enhancer + MEI-522 (Voruciclib), 72 h"}, "[9]": {"conditions": "enhancer combined with MEI-522 (Voruciclib), Gp2D (Colorectal), 72 hours, inhibition data"}, "[10]": {"conditions": "Calu-1 (KRAS G12C), enhancer + MEI-522 (Voruciclib), 72 h"}, "[11]": {"conditions": "enhancer combined with MEI-522 (Voruciclib), Calu-1 (Lung), 72 hours, inhibition data"}, "[12]": {"conditions": "SW48 (KRAS WT), enhancer + MEI-522 (Voruciclib), 72 h"}, "[13]": {"conditions": "enhancer combined with MEI-522 (Voruciclib), SW48 (Colorectal), 72 hours, inhibition data"}, "[14]": {"conditions": "Panc 04.03 (KRAS G12D), enhancer + MEI-522 (Voruciclib), 72 h"}, "[15]": {"conditions": "enhancer combined with MEI-522 (Voruciclib), Panc 04.03 (Pancreas), 72 hours, inhibition data"}}, "note": "Read-outs that look alike come from different tables or passages of the source."}
{"smiles": "C=CC(=O)N1CCN(c2nc(=O)n(-c3c(C)ccnc3C(C)C)c3nc(-c4c(O)cccc4F)c(F)cc23)[C@@H](C)C1", "note": "[AMG510]", "values": [{"measurement": "Best CI", "setting": "HCC44; [1]", "result": 0.63}, {"measurement": "Bliss Volume", "setting": "HCC44; [1]", "result": 2.46}, {"measurement": "HSA volume", "setting": "HCC44; [1]", "result": 2.64}, {"measurement": "Loewe Volume", "setting": "HCC44; [1]", "result": 2.30}, {"measurement": "Synergy Score", "setting": "HCC44; [1]", "result": 4.36}, {"measurement": "Response Area", "setting": "HCC44; [2]", "result": 1.52}, {"measurement": "Response Area", "setting": "HCC44; [3]", "result": 1.97}, {"measurement": "EC50", "setting": "HCC44; [2]", "result": 4.1, "unit": "nM"}, {"measurement": "EC50", "setting": "HCC44; [4]", "result": 4.6, "unit": "nM"}, {"measurement": "Emax", "setting": "HCC44; [5]", "result": 32, "unit": "%"}, {"measurement": "Emax", "setting": "HCC44; [6]", "result": 41, "unit": "%"}, {"measurement": "Best CI", "setting": "HCC44; [7]", "result": 0.67}, {"measurement": "Bliss Volume", "setting": "HCC44; [7]", "result": "−0.82"}, {"measurement": "HSA volume", "setting": "HCC44; [7]", "result": 1.08}, {"measurement": "Loewe Volume", "setting": "HCC44; [7]", "result": 0.97}, {"measurement": "Synergy Score", "setting": "HCC44; [7]", "result": 1.16}, {"measurement": "Best CI Level", "setting": "HCC44; enhancer combined with MEI-522 (Voruciclib), HCC44 (Lung), 72 hours, inhibition data, unit assumed", "result": 45, "unit": "%"}, {"measurement": "EC50", "setting": "Gp2D; 72 h, Additional Single Agent Responses (inhibition, % I)", "result": 2560, "unit": "nM"}, {"measurement": "EC50", "setting": "Gp2D; 72 h, growth inhibition (GI) curve, single agent", "result": 2550, "unit": "nM"}, {"measurement": "Best CI", "setting": "Gp2D; [8]", "result": 0.47}, {"measurement": "Bliss Volume", "setting": "Gp2D; [8]", "result": 1.60}, {"measurement": "HSA volume", "setting": "Gp2D; [8]", "result": "−1.47"}, {"measurement": "Loewe Volume", "setting": "Gp2D; [8]", "result": 1.40}, {"measurement": "Synergy Score", "setting": "Gp2D; [8]", "result": 2.14}, {"measurement": "Response Area", "setting": "Gp2D; [2]", "result": 0.42}, {"measurement": "Emax", "setting": "Gp2D; [5]", "result": 13, "unit": "%"}, {"measurement": "Response Area", "setting": "Gp2D; [3]", "result": 0.55}, {"measurement": "Emax", "setting": "Gp2D; [6]", "result": 18, "unit": "%"}, {"measurement": "Best CI", "setting": "Gp2D; [9]", "result": 0.90}, {"measurement": "Best CI Level", "setting": "Gp2D; [9]", "result": 20}, {"measurement": "Bliss Volume", "setting": "Gp2D; [9]", "result": 0.54}, {"measurement": "HSA volume", "setting": "Gp2D; [9]", "result": "−1.21"}, {"measurement": "Loewe Volume", "setting": "Gp2D; [9]", "result": 0.47}, {"measurement": "Synergy Score", "setting": "Gp2D; [9]", "result": 0.43}, {"measurement": "Best CI", "setting": "Calu-1; [10]", "result": 0.80}, {"measurement": "Bliss Volume", "setting": "Calu-1; [10]", "result": 2.90}, {"measurement": "HSA volume", "setting": "Calu-1; [10]", "result": 2.88}, {"measurement": "Loewe Volume", "setting": "Calu-1; [10]", "result": 2.66}, {"measurement": "Synergy Score", "setting": "Calu-1; [10]", "result": 4.52}, {"measurement": "Response Area", "setting": "Calu-1; [2]", "result": 1.72}, {"measurement": "Response Area", "setting": "Calu-1; [3]", "result": 2.29}, {"measurement": "EC50", "setting": "Calu-1; [2]", "result": 2.8, "unit": "nM"}, {"measurement": "EC50", "setting": "Calu-1; [4]", "result": 2.9, "unit": "nM"}, {"measurement": "Emax", "setting": "Calu-1; [5]", "result": 37, "unit": "%"}, {"measurement": "Emax", "setting": "Calu-1; [6]", "result": 48, "unit": "%"}, {"measurement": "Best CI", "setting": "Calu-1; [11]", "result": 0.72}, {"measurement": "Best CI Level", "setting": "Calu-1; [11]", "result": 55}, {"measurement": "Bliss Volume", "setting": "Calu-1; [11]", "result": "−0.15"}, {"measurement": "HSA volume", "setting": "Calu-1; [11]", "result": 1.55}, {"measurement": "Loewe Volume", "setting": "Calu-1; [11]", "result": 1.28}, {"measurement": "Synergy Score", "setting": "Calu-1; [11]", "result": 1.42}, {"measurement": "EC50", "setting": "SW48; [2]", "result": 2710, "unit": "nM"}, {"measurement": "EC50", "setting": "SW48; [4]", "result": 2720, "unit": "nM"}, {"measurement": "Emax", "setting": "SW48; [5]", "result": 14, "unit": "%"}, {"measurement": "Emax", "setting": "SW48; [6]", "result": 17, "unit": "%"}, {"measurement": "Best CI", "setting": "SW48; [12]", "result": 0.46}, {"measurement": "Bliss Volume", "setting": "SW48; [12]", "result": 2.71}, {"measurement": "HSA volume", "setting": "SW48; [12]", "result": 0.73}, {"measurement": "Loewe Volume", "setting": "SW48; [12]", "result": 2.40}, {"measurement": "Synergy Score", "setting": "SW48; [12]", "result": 4.05}, {"measurement": "Response Area", "setting": "SW48; [2]", "result": 0.48}, {"measurement": "Response Area", "setting": "SW48; [3]", "result": 0.61}, {"measurement": "Best CI", "setting": "SW48; [13]", "result": 0.50}, {"measurement": "Bliss Volume", "setting": "SW48; [13]", "result": 1.20}, {"measurement": "HSA volume", "setting": "SW48; [13]", "result": 0.35}, {"measurement": "Loewe Volume", "setting": "SW48; [13]", "result": 1.24}, {"measurement": "Synergy Score", "setting": "SW48; [13]", "result": 1.36}, {"measurement": "Best CI Level", "setting": "SW48; enhancer combined with MEI-522 (Voruciclib), SW48 (Colorectal), 72 hours, inhibition data, unit assumed", "result": 35, "unit": "%"}, {"measurement": "EC50", "setting": "Panc 04.03; Homo sapiens, Panc 04.03, 72 h", "result": 3000, "unit": "nM"}, {"measurement": "Emax", "setting": "Panc 04.03; Homo sapiens, Panc 04.03, 72 h, read-out: Max Response (% GI)", "result": 25, "unit": "%"}, {"measurement": "Emax", "setting": "Panc 04.03; Homo sapiens, Panc 04.03, 72 h, read-out: Max Response (% I)", "result": 19, "unit": "%"}, {"measurement": "Best CI", "setting": "Panc 04.03; [14]", "result": 0.51}, {"measurement": "Bliss Volume", "setting": "Panc 04.03; [14]", "result": 2.52}, {"measurement": "HSA volume", "setting": "Panc 04.03; [14]", "result": "−2.59"}, {"measurement": "Loewe Volume", "setting": "Panc 04.03; [14]", "result": 2.70}, {"measurement": "Synergy Score", "setting": "Panc 04.03; [14]", "result": 3.01}, {"measurement": "Response Area", "setting": "Panc 04.03; [2]", "result": 0.00}, {"measurement": "Response Area", "setting": "Panc 04.03; [3]", "result": 0.00}, {"measurement": "Best CI", "setting": "Panc 04.03; [15]", "result": 0.60}, {"measurement": "Best CI Level", "setting": "Panc 04.03; [15]", "result": 20}, {"measurement": "Bliss Volume", "setting": "Panc 04.03; [15]", "result": 0.79}, {"measurement": "HSA volume", "setting": "Panc 04.03; [15]", "result": "−2.11"}, {"measurement": "Loewe Volume", "setting": "Panc 04.03; [15]", "result": 1.18}, {"measurement": "Synergy Score", "setting": "Panc 04.03; [15]", "result": 1.06}]}
